Measurements published in EP1209147A1, “CARBOXYLIC ACID DERIVATIVES AND ADHESION MOLECULE INHIBITORS CONTAINING THE SAME AS THE ACTIVE INGREDIENT” (TORAY INDUSTRIES, INC., priority 1999, dated 2001).

Assays:
Auricular Edema Model = assay: Auricular edema model (IgE anti-DNP passive sensitization, DNFB induction); assay type: in vivo, BLAB/c mouse
Experimental: To each BLAB/c mouse (female, 7 weeks old, JAPAN CHARLES RIVER), mouse IgE anti-DNP antibody (5 mg/kg, SEIKAGAKU CORPORATION) was intravenously administered to passively sensitize the mouse. Twenty four hours later, 20 µl of 0.38% 2,4- dinitrofluorobenzene (DNFB, Aldrich) dissolved in acetone:olive oil (4:1) was applied to the auricle of the sensitized mouse to induce inflammation. The thickness of the auricle was measured until 24 hours after the induction with Digimatic Indicator (Mitutoyo) and the ear swelling rate was calculated according to the following equation: Ear Swelling Rate (%) = (A - B)/B x 100 [formula] • A: Thickness of right auricle at 24 hours after induction • B: Thickness of right auricle before induction
Twenty four hours after the induction, the auricle was cut off and fixed with formalin. After the fixation, continuous sections of the auricle were prepared and stained by Luna staining. The number of eosinophils in each section was counted and the total of them was defined as the number of eosinophils accumulated in the auricle.
Compound No. 140 used as the test compound was dissolved in physiological saline and the solution was intravenously administered totally 3 times, i.e., at the time of sensitization, at 8 hours and 24 hours after sensitization, at a dose of 400 mg/kg per each time. Further, to examine the effect of the compound when applied to the auricle, the compound was dissolved in ethanol, and the solution was applied to the auricle totally twice, i.e., at 8 hours after sensitization and at 1 hour before the induction, at a dose of 0.3 mg/ear. To the background group and the control group, physiological saline was intravenously administered and ethanol was applied, respectively. The experiment was carried out using 4 to 6 mice in each group. The results are shown in terms of mean ± standard error.
Twenty four hours after the induction, the auricle was cut off and fixed with formalin. After the fixation, continuous sections of the auricle were prepared and stained by Luna staining. The number of eosinophils in each section was counted. Compound No. 143 used as the test compound was dissolved in physiological saline and the solution was topically or systemically administered totally 3 times, i.e., at the time of sensitization, at 8 hours and 24 hours after sensitization. The experiment was carried out using 4 to 6 mice in each group. The results are shown in terms of mean ± standard error.

[1] = tested on: Guinea Pig Rhinitis Model; assay: Guinea pig rhinitis model (OVA, respiratory resistance); assay type: in vivo, Harley guinea pig; details: 10 mg intranasally before induction by the antigen; 10 minutes to 8 hours after induction; Fig. 3
Experimental: Cyclophosphamide (SIGMA) was dissolved in physiological saline to a concentration of 25 mg/ml, and the solution was intraperitoneally administered to each Harley guinea pig (male, 2 weeks old, JAPAN SLC) at a dose of 50 mg/kg on DAY-0. Equivolume of OVA (2.0 mg/ml) dissolved in physiological saline and 12 ml of aqueous 9% AlK(SO4)2 solution were mixed, and then 10% aqueous Na2CO3 solution was added thereto to adjust the pH to 6.5, thereby obtaining Al(OH)3 gel (OVA 500 µg/ml) on which OVA was adsorbed. The obtained product was centrifuged and the precipitated gel was washed with PBS(-), followed by addition of Bordetella pertussis cell suspension (WAKO PURE CHEMICALS). The OVA concentration was adjusted to 100 µg/ml, and 1 ml (100 µg) of the resulting product was intraperitoneally administered to each guinea pig. On DAY-22, each mice was made to inhale 1% OVA dissolved in physiological saline for 10 minutes. […] The increase in the respiratory resistance from 10 minutes after the induction to 8 hours after the induction was measured by a respiratory resistance-measuring apparatus (body plethysmograph method; SHIZUME MEDICAL), and the result was expressed in terms of the ratio of the measured resistance based on the respiratory resistance measured before the induction by the antigen. […]

**Q.** For `CC(C)(C)CC(=O)N[C@@H](CSSC[C@H](NC(=O)CC(C)(C)C)C(=O)O)C(=O)O` [Example 140, 3-((2(R)-carboxy-2(R)-(3,3-dimethylbutanoylamino)ethyl)disulfanyl)-2(R)-(3,3-dimethylbutanoylamino)propionic acid], which “swelling of ear induced by application of the antigen” value (Auricular Edema Model; Compound No. 140: 400 mg/kg intravenously 3 times or 0.3 mg/ear applied to auricle) is on record?
**A.** inhibited

**Q.** What about the “accumulation of eosinophils to auricle induced by application of the antigen” value (Auricular Edema Model; Compound No. 140: 400 mg/kg intravenously 3 times or 0.3 mg/ear applied to auricle, Fig. 1, 400 mg/kg) of the same molecule?
**A.** inhibits

**Q.** And the “Ear Swelling Rate (%)” value (Auricular Edema Model; applied to auricle, 0.3 mg/ear, twice, 24 hours after induction)?
**A.** 26.12%

**Q.** And the “Inhibition Rate (%)” value (Auricular Edema Model; swelling of ear, applied to auricle, 0.3 mg/ear, twice)?
**A.** 40.3%

**Q.** What about the “increase in the respiratory resistance” value [1] of the same molecule?
**A.** inhibits
